Experimental findings from article PMC9008576, “Characterization of Agarolytic Pathway in a Terrestrial Bacterium Cohnella sp. LGH” (Frontiers in Microbiology, 2022) are described below.

One experiment addresses T1, AgWH2A (Agarivorans gilvus, UniProt A0A2Z4WWH8).
T1 construct: gene lacZ; pET29a (SalI/XhoI), E. coli BL21(DE3) pLysS, Ni-NTA (vector tags kept)
T1 sequence (A0A2Z4WWH8 1-753): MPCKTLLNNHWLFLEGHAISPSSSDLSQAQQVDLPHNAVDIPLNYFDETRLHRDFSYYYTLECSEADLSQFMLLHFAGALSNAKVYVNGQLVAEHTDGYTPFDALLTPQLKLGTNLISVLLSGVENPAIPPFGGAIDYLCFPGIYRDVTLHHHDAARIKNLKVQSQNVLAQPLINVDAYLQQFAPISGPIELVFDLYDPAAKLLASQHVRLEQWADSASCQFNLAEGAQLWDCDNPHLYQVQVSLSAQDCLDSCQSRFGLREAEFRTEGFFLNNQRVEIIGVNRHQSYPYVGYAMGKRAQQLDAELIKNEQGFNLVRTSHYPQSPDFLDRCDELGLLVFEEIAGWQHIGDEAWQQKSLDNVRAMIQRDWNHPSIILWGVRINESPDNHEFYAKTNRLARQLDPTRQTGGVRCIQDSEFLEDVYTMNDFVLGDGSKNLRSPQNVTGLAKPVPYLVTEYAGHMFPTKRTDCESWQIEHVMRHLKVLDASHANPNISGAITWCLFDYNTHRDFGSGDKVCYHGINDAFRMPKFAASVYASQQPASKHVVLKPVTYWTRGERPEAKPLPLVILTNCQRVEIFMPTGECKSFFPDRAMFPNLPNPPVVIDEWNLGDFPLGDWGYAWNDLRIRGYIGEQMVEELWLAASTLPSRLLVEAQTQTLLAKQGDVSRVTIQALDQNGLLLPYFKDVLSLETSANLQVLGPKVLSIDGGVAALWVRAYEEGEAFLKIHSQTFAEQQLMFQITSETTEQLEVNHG
Put plainly: TLC of products. The following applies: 10 mM potassium phosphate pH 7.5, 30°C, 4 h; positive control enzyme. It is filed as biochemical.

The test system of a further experiment is T2, CL4994.
T2 construct: pET29a (KpnI/XhoI), E. coli BL21(DE3) pLysS, Ni-NTA (vector tags kept); GH2
Nature of the experiment: agarotriose consumption, non-linear regression. The following applies: 10 mM potassium phosphate pH 7.0, 30°C, 10 min, 0.5–7.5 mg/ml substrate. The format is biochemical, Cohnella sp. LGH.

In the next experiment the test system is T3, CL5012.
T3 construct: pET29a (NdeI/XhoI), E. coli BL21(DE3) pLysS, Ni-NTA (C-terminal His tag likely); GH117
Nature of the experiment: L-AHG release, non-linear regression. The following applies: 10 mM Tris-HCl pH 8.0, 35°C, 10 min, 0.5–7.5 mg/ml substrate. It is filed as biochemical, Cohnella sp. LGH.

`OC[C@H]1O[C@@H](O[C@H]2[C@H]3OC[C@@H]2O[C@@H](O[C@H]2[C@@H](O)[C@@H](CO)OC(O)[C@@H]2O)[C@H]3O)[C@H](O)[C@@H](O)[C@H]1O` (stereo partly drawn) [agarotriose]: on AgWH2A, the TLC of products entry was “depolymerization products of agarotriose by the reported ABG AgWH2A”. Besides, in the experiment on CL4994, the Km amounted to 3.90 mg ml^–1.

As for `OC[C@H]1OC(O)[C@H](O)[C@@H](O[C@@H]2O[C@H]3CO[C@@H]([C@@H]2O)[C@@H]3O)[C@H]1O` (stereo partly drawn) [neoagarobiose], the Km in the experiment with CL5012 was found to be 4.45 mg ml^–1.
